According to patent US7722863B2, “Use of granzyme b as an hsp70/hsp70 peptide dependent inducer of apoptosis in tumor cells” (Multimmune GmbH, priority 2002, dated 2010):

Assays:
CD3 positive T cells = assay: Intracellular granzyme B expression after treatment with Hsp70-peptide TKD; type: cell-based, human; details: treated with Hsp70-peptide TKD
Method: The physiological role of our findings was tested in functional assays using naive and Hsp70 stimulated human NK cells. […] Although Hsp70 acts as a tumor-selective recognition structure for NK cells, as determined by antibody blocking studies (Multhoff et. al. (1997) J. Immunol. 158,4341; Multhoff et. al. (1995) Blood 86,1374), the NK-cytotoxic mechanism remains unclear. To elucidate the possible mechanism, NK cells were incubated with Hsp70-peptide TKD ([…]) for 3 days. […] In contrast, granzyme B expression was not increased in CD3 positive T cells treated with Hsp70-peptide TKD. Light microscopical analysis of Hsp70-peptide activated NK cells co-incubated with Hsp70 membrane-positive CX+ and Hsp70 membrane-negative CX− cells is illustrated in FIG. 4A. Hsp70 membrane-positive CX+ and Hsp70 membrane-negative CX− tumor cells (0.1×10^6 cells/ml) were cultured in duplicates in 24 well plates for 2 days. […] CX+ and CX− tumor cells in the upper panel were cultured in the absence of NK cells; tumor cells in the lower panel were co-cultured for 12 h with NK cells that had been stimulated with Hsp70-peptide TKD (2 μg/ml, 3 days). Nearly 100% of the CX+ cell colonies were found in clusters with NK cells and viability of CX+ tumor cells appears to be reduced. […]

CX− tumor target cells = assay: 12 h 51Cr release assay, NK cell mediated cytotoxicity; type: cell-based, human; details: TKD 3 days
Method: (§1) The NK cell line YT was cultured at cell densities ranging from 0.1-0.5×10^6 cells/ml RPMI-1640 medium (Life Technologies, Eggenstein, Germany) containing 10% heat inactivated fetal calf serum (FCS, Life Technologies, Eggenstein, Germany) supplemented with 6 mM L-glutamine, and antibiotics (100 IU/ml penicillin and 100 μg/ml streptomycin; Life Technologies). Transient plastic adherent NK cells were derived from buffy coats of healthy human volunteers. Ficoll separated peripheral blood mononuclear cells (PBMC) were cultured in rIL-2 (100 IU/ml, Chiron, Frankfurt, Germany) for 12 h. Following adherence selection of monocyte depleted peripheral blood lymphocytes according to a modified method of Vujanovic (Vujanovic et. al. (1993) Cell. Immunol. 151, 133), cells were cultivated in RPMI-1640 medium supplemented with Hsp70-peptide TKD (2 μg/ml) for 3 days. The human tumor sublines CX+/CX− and Colo+/Colo− were derived by cell sorting of CX-2 colon (Hsp70 positive: 60%) and Colo357 pancreas (Hsp70 positive: 70%) carcinoma cell lines using the Hsp70 specific monoclonal antibody C92F3B1, according to a previously described protocol (Multhoff et. al. (1997) J. Immunol. 158, 4341).
(§2) NK cell mediated cytotoxicity was measured using a 12 h ^51Cr radioisotope assay. As target cells the colon carcinoma sublines CX+ and CX− were used. For blocking studies the mAb C92F3B1 and an isotype matched control antibody (IgG1) were used at a final concentration of 5 μg/1×10^6 cells. Following incubation of CX+ and CX− target cells with the antibodies for 30 min at 4° C., the cells were labeled with ^51Cr and the cytotoxicity assay was performed as described by MacDonald (MacDonald et. al. (1974) J. Exp. Med. 140,718). The percentage of specific lysis was calculated as: [(experimental release−spontaneous release)/(maximal release−spontaneous release)]×100.
(§3) Cell kill of CX+/CX− and Colo+/Colo− tumor cells following contact with freshly isolated, unstimulated (NK d0) or Hsp70-peptide TKD stimulated NK cells (NK d3) was quantitated in a 12 h ^51Cr release assay (FIG. 4B). […] Technically, it is not possible to quantify the absolute amount of granzyme B that is transferred from NK cells into tumor cells by cell-to-cell contact. However, relative values of granzyme B release could be determined by ELISPOT analysis. Therefore, a comparison of the cytolytic response of freshly isolated, unstimulated (NK d0) and TKD-stimulated NK cells (NK d3) against CX+/CX− and Colo+/Colo− tumor cells was performed concomitantly with the definition of the granzyme B release. […] At an E:T ratio of 5:1, the number of granzyme B spots, as determined in three independent experiments, was as follows: CX+ 260±20, CX− 165±6; Colo+ 137±55; Colo− 66±8. […]

Colo+ tumor target cells = assay: as above; type: cell-based, human; details: E:T ratios 2:1 to 20:1; TKD 3 days
Method: as §1, §2, §3

Colo− tumor target cells = assay: as above; type: cell-based, human; details: TKD 3 days
Method: as §1, §2, §3

CX+ tumor target cells = assay: as above; type: cell-based, human; details: E:T ratios 2:1 to 20:1; TKD 3 days
Method: as §1, §2, §3

Colo− tumor cells = assay: Granzyme B ELISPOT, NK cells co-incubated with tumor cells; type: cell-based, human; details: TKD-stimulated NK cells (NK d3), 4 h coincubation, E:T 5:1, three independent experiments
Method: (§4) Granzyme B release was compared in unstimualted NK cells (NK d0) and TKD stimulated NK cells (NK d3) after a 4 h co-incubation period with tumor cell lines CX+/CX− and Colo+/Colo−, at different effector to target cell ratios (E:T) ranging from 20:1 to 2:1. For detection a Granzyme B ELISPOT kit (#552572, BD, Heidelberg, Germany) was used. Briefly, 96-well ELISPOT plates (MAIPN45, Millipore) were coated overnight at 4° C. with capture antibody, blocked with RPMI-1640 culture medium containing 10% FCS and incubated with tumor and effector cells for 4 h at 37° C., as specified before. After washing in deionized water and wash buffers A and B, biotinylated anti-granzyme B antibody was added (2 μg/ml) for 2 h. After another two washing steps granzyme B was visualized by the addition of freshly prepared avidin-horseradish peroxidase (2 h) and substrate solution (25 min incubation period). Spots were counted automatically using ImmunoSpot Series I Analyzer. ^51Cr Release Assay and Inhibition Assay
(§5) Cell kill of CX+/CX− and Colo+/Colo− tumor cells following contact with freshly isolated, unstimulated (NK d0) or Hsp70-peptide TKD stimulated NK cells (NK d3) was quantitated in a 12 h ^51Cr release assay (FIG. 4B). […] Technically, it is not possible to quantify the absolute amount of granzyme B that is transferred from NK cells into tumor cells by cell-to-cell contact. However, relative values of granzyme B release could be determined by ELISPOT analysis. Therefore, a comparison of the cytolytic response of freshly isolated, unstimulated (NK d0) and TKD-stimulated NK cells (NK d3) against CX+/CX− and Colo+/Colo− tumor cells was performed concomitantly with the definition of the granzyme B release. Irrespectively of the tumor cell line and the E:T cell ratio, co-incubation of tumor cells with unstimulated NK cells (NK d0), always results in very low granzyme B release; the number of spots was always less than 20. […] At an E:T ratio of 5:1, the number of granzyme B spots, as determined in three independent experiments, was as follows: CX+ 260±20, CX− 165±6; Colo+ 137±55; Colo− 66±8. […] It was hypothesized that interaction of granzyme B with membrane-bound Hsp70-peptide TKD is key for its uptake into tumor cells and for the induction of apoptosis. When NK cells were removed by washing with PBS and the tumor cells were stained with DAPI. […] Identical results were obtained with Annexin V-FITC staining (data not shown).

CX+ tumor cells = assay: as above; type: cell-based, human; details: TKD-stimulated NK cells (NK d3), 4 h coincubation, E:T 5:1, three independent experiments
Method: as §4, §5

CX− tumor cells = assay: as above; type: cell-based, human; details: TKD-stimulated NK cells (NK d3), 4 h coincubation, E:T 5:1, three independent experiments
Method: as §4, §5

Colo+ tumor cells = assay: as above; type: cell-based, human; details: TKD-stimulated NK cells (NK d3), 4 h coincubation, E:T 5:1, three independent experiments
Method: as §4, §5

[1] = test system: Hsp70 membrane-positive CX+ cells; assay: Microscopy of tumor cells co-incubated with Hsp70-peptide TKD stimulated NK cells; type: cell-based, human
Method: (§6) FIG. 4A: Light microscopy (magnification 20×) of Hsp70 membrane-positive CX+ and Hsp70 membrane-negative CX− cell colonies, either untreated (control) or following a 12 h co-incubation with Hsp70-peptide TKD stimulated NK cells (+NK). The effector to target cell ratio (E:T) was 20:1.
(§7) The physiological role of our findings was tested in functional assays using naive and Hsp70 stimulated human NK cells. […] Although Hsp70 acts as a tumor-selective recognition structure for NK cells, as determined by antibody blocking studies (Multhoff et. al. (1997) J. Immunol. 158,4341; Multhoff et. al. (1995) Blood 86,1374), the NK-cytotoxic mechanism remains unclear. To elucidate the possible mechanism, NK cells were incubated with Hsp70-peptide TKD ([…]) for 3 days. […] In contrast, granzyme B expression was not increased in CD3 positive T cells treated with Hsp70-peptide TKD. Light microscopical analysis of Hsp70-peptide activated NK cells co-incubated with Hsp70 membrane-positive CX+ and Hsp70 membrane-negative CX− cells is illustrated in FIG. 4A. Hsp70 membrane-positive CX+ and Hsp70 membrane-negative CX− tumor cells (0.1×10^6 cells/ml) were cultured in duplicates in 24 well plates for 2 days. […] CX+ and CX− tumor cells in the upper panel were cultured in the absence of NK cells; tumor cells in the lower panel were co-cultured for 12 h with NK cells that had been stimulated with Hsp70-peptide TKD (2 μg/ml, 3 days). Nearly 100% of the CX+ cell colonies were found in clusters with NK cells and viability of CX+ tumor cells appears to be reduced. […] Cell viability of CX− tumor cells following contact with NK cells appears to be less affected, as compared to that of CX+ tumor cells. The inserts in the lower right corner of each graph illustrates a 2.5× magnification of one representative cell colony.
as §3

[2] = test system: Hsp70 membrane-negative CX− cells; assay: as above; type: cell-based, human
Method: as §6, §7, §3

[3] = test system: Hsp70 membrane-positive tumor target cells; details: Hsp70-peptide 0.2-2.0 μg/ml; cited from earlier work
NK cells = assay: Intracellular granzyme B expression after stimulation with Hsp70-peptide TKD; type: cell-based, human
Method: The NK cell line YT was cultured at cell densities ranging from 0.1-0.5×10^6 cells/ml RPMI-1640 medium (Life Technologies, Eggenstein, Germany) containing 10% heat inactivated fetal calf serum (FCS, Life Technologies, Eggenstein, Germany) supplemented with 6 mM L-glutamine, and antibiotics (100 IU/ml penicillin and 100 μg/ml streptomycin; Life Technologies). Transient plastic adherent NK cells were derived from buffy coats of healthy human volunteers. Ficoll separated peripheral blood mononuclear cells (PBMC) were cultured in rIL-2 (100 IU/ml, Chiron, Frankfurt, Germany) for 12 h. […]
Cells (0.5×10^6) were fixed in paraformaldehyde (1% PFA in PBS) for 10 min, and permeabilized in PBS containing BSA (0.5%), NaN3 (0.1%), and saponin (0.1%). […] Following washing cells were analysed on a FACSCalibur instrument (Becton Dickinson, Heidelberg, Germany).
The physiological role of our findings was tested in functional assays using naive and Hsp70 stimulated human NK cells. […] Although Hsp70 acts as a tumor-selective recognition structure for NK cells, as determined by antibody blocking studies (Multhoff et. al. (1997) J. Immunol. 158,4341; Multhoff et. al. (1995) Blood 86,1374), the NK-cytotoxic mechanism remains unclear. […]

[4] = 12 h co-culture with NK cells stimulated with TKD 2 μg/ml, 3 days, E:T 20:1

## TKDNNLLGRFELSG (listed as Homo sapiens) [Hsp70-peptide TKD]
CD3 positive T cells
  granzyme B expression in CD3 positive T cells: not increased
CX− tumor target cells
  lysis of CX− tumor cells, NK d3 versus NK d0: remained unaffected
Colo+ tumor target cells
  lysis of Colo+ cells, TKD stimulated (NK d3) versus naive NK cells (NK d0): 2.0 fold
Colo− tumor target cells
  lysis of Colo− tumor cells, NK d3 versus NK d0: remained unaffected
CX+ tumor target cells
  lysis of CX+ cells, TKD stimulated (NK d3) versus naive NK cells (NK d0): 1.5 fold
Colo− tumor cells
  number of granzyme B spots: 66±8
CX+ tumor cells
  number of granzyme B spots: 260±20
CX− tumor cells
  number of granzyme B spots: 165±6
Colo+ tumor cells
  number of granzyme B spots: 137±55
[1]; [4]
  CX+ cell colonies found in clusters with NK cells: ~100%
[1]; NK cells removed by washing
  DNA fragmentation (DAPI) in CX+ cells after co-incubation with TKD activated NK cells: showed DNA fragmentation
[2]; [4]
  CX− tumor cells in clusters with NK cells: not found in clusters
[2]; NK cells removed by washing
  DNA fragmentation (DAPI) in CX− cells after co-incubation with TKD activated NK cells: not
[3]
  cytolytic activity of NK cells against Hsp70 membrane-positive tumor target cells: increased cytolytic activity
NK cells; Hsp70-peptide TKD 2 μg/ml, 3 days
  intracellular granzyme B levels, TKD stimulated NK cells (NK d3) versus naive NK cells (NK d0): 1.4 fold
NK cells; Hsp70-peptide TKD for 3 days, 3 independent experiments
  intracellular granzyme B expression in NK cells: significantly elevated
